Measurements from ChEMBL document CHEMBL4477261, “Design, synthesis and evaluation of the multidrug resistance-reversing activity of pyridine acid esters of podophyllotoxin in human leukemia cells” (Bioorg Med Chem Lett, 2016).
pIC50: −log10 of the molar value.

Key:
K562 [1] = assay: Resistance factor, ratio of IC50 for human K562/ADR cells to IC50 for human K562 cells; type: functional
K562/Adr = assay: Antiproliferative activity against human K562/ADR cells after 72 hrs by CCK8 assay; type: functional, cell-based
K562 [2] = assay: Antiproliferative activity against human K562 cells after 72 hrs by CCK8 assay; type: functional, cell-based; settings: K562, 72 h

Row | SMILES | Ratio IC50 (K562 [1]) | pIC50 (K562/Adr) | pIC50 (K562 [2])
1 | COc1cc([C@@H]2c3cc4c(cc3[C@H](OC(=O)c3ccc(Br)cn3)[C@H]3COC(=O)[C@H]23)OCO4)cc(OC)c1OC | 8.421 | 6.80 | 7.72
2 | COc1cc([C@@H]2c3cc4c(cc3[C@H](OC(=O)c3cccnc3OC)[C@H]3COC(=O)[C@H]23)OCO4)cc(OC)c1OC | 3.085 | 6.84 | 7.33
3 | COc1cc([C@@H]2c3cc4c(cc3[C@H](OC(=O)c3ccncc3)[C@H]3COC(=O)[C@H]23)OCO4)cc(OC)c1OC [4-O-PODOPHYLLOTOXINYL-ISONICOTINATE] | 4.363 | 7.32 | 7.96
